Laboratory results taken from article PMC7238976 (Phytochemistry, 2020).
Read-outs that look alike come from different tables or passages of the source. Blank lines part the entries; values can stand above or below the compound they belong to.

Legend:
[1] = system: HIV; settings: read-out: Anti-HIV IC50 (literature); ref Olivon, et al., 2017; cited from earlier work
[2] = system: HL4–3 virus; assay: Anti-HIV-1 activity against HL4–3 virus in MT4 cells; assay type: cell-based
[3] = Cytotoxicity toward MT4 cells; assay type: cell-based; settings: human
[4] = system: MT4 cells; assay: Cytotoxicity toward MT4 cells; assay type: cell-based; settings: read-out: Cytotoxicity CC50, means, n = 3
[5] = read-out: Anti-HIV-1 IC50, HL4–3 virus in MT4 cells, means, n = 3

Compound: CCCCCCCCCCCCCCCC(=O)O[C@@]12C[C@@H](C)[C@@]3(O)[C@H]([C@@H]1C2(C)C)[C@H](O)[C@](O)(CO)[C@@H](O)[C@]1(O)C(=O)C(C)=C[C@H]13 [12-deoxy-5β-6β-7α-trihydroxy-phorbol-13-hexadecanoate]
IC50 [1]: 257 nM

Compound: CCCCCCCCCCCCCCCC(=O)O[C@@]12C[C@@H](C)[C@]3(O)[C@@H]4C=C(C)C(=O)[C@@]4(O)[C@H](O)C(CO)=C[C@H]3[C@@H]1C2(C)C [12-deoxy-5β-hydroxy-phorbol-13-hexadecanoate]
IC50 [1]: 2 nM

IC50 ([2]; Human immunodeficiency virus 1, MT4, read-out: Anti-HIV-1 IC50): 18.7 nM
Compound: Cc1cn([C@H]2C[C@H](N=[N+]=[N-])[C@@H](CO)O2)c(=O)[nH]c1=O [AZT, zidovudine, reference compound]
Selectivity index SI ([2]; ratio of CC50 and anti-HIV IC50): > 20
CC50 [3]: > 370 nM

Compound: CCCCCCCCCCCCCCCC(=O)O[C@@]12C[C@@H](C)[C@@]3(O)[C@@H](C=C(CO)C[C@]4(O)C(=O)C(C)=C[C@@H]34)[C@@H]1C2(C)C [Compound 7, 12-deoxyphorbol-13-hexadecanoate]
IC50 [2, 5]: 2.3 nM
CC50 [4]: > 1700 nM

Compound: CCCCCCCCCCCCCC(=O)O[C@@]12C[C@@H](C)[C@@]3(O)[C@@H](C=C(CO)C[C@]4(O)C(=O)C(C)=C[C@@H]34)[C@@H]1C2(C)C [Compound 8, 12-deoxyphorbol-13-myristate]
IC50 [2, 5]: 22 nM
CC50 [4]: > 1800 nM

Compound: Crotignoid L [Compound 1]
IC50 [2, 5]: 220 nM
CC50 [4]: > 1800 nM

Compound: Crotignoid M [Compound 2]
IC50 [2, 5]: 38 nM
CC50 [4]: > 1700 nM

Compound: Crotignoid N [Compound 3]
IC50 [2, 5]: 310 nM
CC50 [4]: > 1600 nM

Compound: Crotignoid O [Compound 4]
IC50 [2, 5]: 4030 nM
CC50 [4]: > 1800 nM

Compound: Crotignoid P [Compound 5]
IC50 [2, 5]: 100 nM
CC50 [4]: > 1600 nM

Compound: Crotignoid Q [Compound 6]
Anti-HIV activity (in words) ([2]; HL4–3 virus in MT4 cells): did not show anti-HIV activity
IC50 [2, 5]: > 1900 nM
CC50 [4]: > 1900 nM
